Laboratory results taken from patent US11813261B2, “HDAC inhibitors, alone or in combination with BTK inhibitors, for treating chronic lymphocytic leukemia” (ACETYLON PHARMACEUTICALS, INC., priority 2016, dated 2023).
Entries after “also recorded” stand apart in the source; their conditions may differ.

Key:
[1] = tested on: CLL; settings: cited from earlier work
[2] = tested on: euTCL1 (CLL model mouse); experiment: Aging CLL model; assay type: in vivo
Description: (§1) Flow cytometric analysis of peripheral blood mononuclear cells (PBMCs) was performed using fluorochrome-labeled monoclonal antibodies and the vitality dye 4′,6-diamidino-2-phenylindole. Data was acquired on an LSRII cytometer (Becton, Dickinson and Company; Franklin Lakes, NJ), and analyzed with FlowJo software (FlowJo; Ashland, Oreg). Absolute cell numbers calculated using AccuCheck Counting beads (ThermoFisher Scientific; Waltham, MA).
(§2) All animal studies involving euTCL1 and its cross with HDAC6KO were performed following established protocols that followed approved Institutional Animal Care and Use Committee (IACUC) procedures. Two mouse models of CLL were used: an Aging CLL model, and an Accelerated CLL Model.
Birth • euTCL1 (CLL model mouse) and • euTCL1/HDAC6KO transgenic mice
5-7 Months • Flow cytometry analysis • For analysis of disease
9 Months • Flow cytometry analysis • For analysis of disease
12 Months • Flow cytometry analysis • For analysis of disease • Observe for survival B) Accelerated CLL Model

[3] = tested on: C57BL/6 mice adoptively transferred with euTCL1 splenocytes; assay type: in vivo; settings: for expression of PD-1 and LAG-3: adoptive transfer, Compound D feed, Compound A injection, 10 weeks post adoptive transfer
Description: as §1, §2
Day 0 • Adoptive transfer of 5×10^6 euTCL1 or euTCL1/1-IDAC6KO splenocytes
Week 3-5 • Flow cytometry analysis • For analysis of disease
Week 9 • Flow cytometry analysis • For analysis of disease
Week 12 • Flow cytometry analysis • For analysis of disease • Observe for survival
Flow cytometry analysis and gating: B-cells (malignant population CD19+/CD5+/CD45R (B220)+/IgM+/Igk+; for normal B-cells CD19+/CD5−/CD45R (B220)+/IgM+/Igk−T-regs were identified as CD3+/CD4+/CD25 hi/IL-7R low. For Co-inhibitory molecule expression CD223 (LAG3), CD279 (PD-1), CD274 (PDL-1), and CD273 (PDL-2).

[4] = clinical trials, myeloma and lymphoma; cited from earlier work
[5] = tested on: Mec1 cells; experiment: IL-10 production by Mec1 cells stimulated with LPS; assay type: cell-based; settings: Mec1 cells treated 24 hours

## Nc1ccccc1NC(=O)c1ccc(CNc2nccc(-c3cccnc3)n2)cc1 [MGCD0103]
[1]
  antileukemic activity in CLL: induced antileukemic activity

## O=C(NO)c1cnc(NC2(c3ccccc3)CC2)nc1 [Compound D, N-hydroxy-2-((1-phenylcyclopropyl)amino)pyrimidine-5-carboxamide]
[2]; 9 months old/25 weeks post treatment start date, vs mice treated without Compound D
  disease burden: significantly lower disease burden
[2]; feed daily, flow cytometry, vs mice not treated
  expression of PD-1 and LAG-3 on T-regs: lower PD-1 and LAG-3 expression; also recorded: reduced
[2]; vs mice not treated
  overall survival: more advantageous overall survival
[3]; B cells isolated from treated mice vs non-treated animals
  expression of PD-L1 on B cells: decrease
[3]; adoptive transfer model
  disease burden: significantly lower disease burden
  overall survival: more advantageous overall survival
[3]
  expression of PD-1 and LAG-3: lower expression; also recorded: reduced
[3]; treatment in chow, week 10 post-adoptive transfer, flow cytometry
  PD-1 and LAG3 on CD4+ T-cells: normalization

## O=C(CCCCCCNC(=O)c1cnc(N(c2ccccc2)c2ccccc2)nc1)NO [Compound A, 2-(diphenylamino)-N-(7-(hydroxyamino)-7-oxoheptyl)pyrimidine-5-carboxamide]
[4]
  tolerability: well-tolerated
[5]
  IL-10 production: dose-dependent decrease
[3]
  expression of PD-1 and LAG-3: lower expression; also recorded: reduced

## CCCC(CCC)C(=O)O [valproic acid]
[1]
  antileukemic activity in CLL: induced antileukemic activity
